According to ChEMBL document CHEMBL1142358, “3-amino-benzo[d]isoxazoles as novel multitargeted inhibitors of receptor tyrosine kinases” (J Med Chem, 2008):
Each block holds one compound with its values, some of them ahead of it. Activity calls are given as the source filed them. No cut-off for these calls is given here.

Experiments:
[1] = molecular target: Receptor-type tyrosine-protein kinase FLT3 (Homo sapiens) (UniProt P36888)
Description: Inhibition of FLT3 by HTRF assay

[2] = molecular target: Mast/stem cell growth factor receptor Kit (Homo sapiens, UniProt P10721); assay: Inhibition of KIT by HTRF assay
Chain of Mast/stem cell growth factor receptor Kit (P10721 whole entry): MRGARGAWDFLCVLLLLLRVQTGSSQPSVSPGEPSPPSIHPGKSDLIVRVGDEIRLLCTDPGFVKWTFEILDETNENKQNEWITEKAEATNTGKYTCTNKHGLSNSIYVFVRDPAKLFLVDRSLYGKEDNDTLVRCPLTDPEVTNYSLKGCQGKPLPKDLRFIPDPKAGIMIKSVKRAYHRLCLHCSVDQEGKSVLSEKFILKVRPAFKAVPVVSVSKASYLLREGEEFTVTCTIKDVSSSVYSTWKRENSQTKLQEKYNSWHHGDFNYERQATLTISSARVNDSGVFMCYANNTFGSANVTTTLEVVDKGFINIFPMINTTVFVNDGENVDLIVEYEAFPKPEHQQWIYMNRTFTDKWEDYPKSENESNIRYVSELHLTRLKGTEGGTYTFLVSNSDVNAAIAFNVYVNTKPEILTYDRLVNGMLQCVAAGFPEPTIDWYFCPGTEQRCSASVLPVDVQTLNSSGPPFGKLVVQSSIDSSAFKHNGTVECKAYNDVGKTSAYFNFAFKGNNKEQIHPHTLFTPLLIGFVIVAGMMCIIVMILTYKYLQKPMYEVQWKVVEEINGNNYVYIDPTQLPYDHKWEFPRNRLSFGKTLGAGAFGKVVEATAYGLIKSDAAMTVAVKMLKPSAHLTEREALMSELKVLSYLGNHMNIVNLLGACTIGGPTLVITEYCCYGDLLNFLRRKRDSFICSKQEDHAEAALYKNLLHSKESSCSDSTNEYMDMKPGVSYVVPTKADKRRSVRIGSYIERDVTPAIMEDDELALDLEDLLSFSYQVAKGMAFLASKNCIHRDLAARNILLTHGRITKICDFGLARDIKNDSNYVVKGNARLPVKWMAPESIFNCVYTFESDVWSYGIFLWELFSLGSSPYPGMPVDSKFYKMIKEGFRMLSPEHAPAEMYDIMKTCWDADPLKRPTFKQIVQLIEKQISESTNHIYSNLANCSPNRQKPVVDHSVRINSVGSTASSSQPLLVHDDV

[3] = molecular target: T1, Receptor-type tyrosine-protein kinase FLT3 (Homo sapiens, UniProt P36888)
T1 sequence (P36888 whole entry): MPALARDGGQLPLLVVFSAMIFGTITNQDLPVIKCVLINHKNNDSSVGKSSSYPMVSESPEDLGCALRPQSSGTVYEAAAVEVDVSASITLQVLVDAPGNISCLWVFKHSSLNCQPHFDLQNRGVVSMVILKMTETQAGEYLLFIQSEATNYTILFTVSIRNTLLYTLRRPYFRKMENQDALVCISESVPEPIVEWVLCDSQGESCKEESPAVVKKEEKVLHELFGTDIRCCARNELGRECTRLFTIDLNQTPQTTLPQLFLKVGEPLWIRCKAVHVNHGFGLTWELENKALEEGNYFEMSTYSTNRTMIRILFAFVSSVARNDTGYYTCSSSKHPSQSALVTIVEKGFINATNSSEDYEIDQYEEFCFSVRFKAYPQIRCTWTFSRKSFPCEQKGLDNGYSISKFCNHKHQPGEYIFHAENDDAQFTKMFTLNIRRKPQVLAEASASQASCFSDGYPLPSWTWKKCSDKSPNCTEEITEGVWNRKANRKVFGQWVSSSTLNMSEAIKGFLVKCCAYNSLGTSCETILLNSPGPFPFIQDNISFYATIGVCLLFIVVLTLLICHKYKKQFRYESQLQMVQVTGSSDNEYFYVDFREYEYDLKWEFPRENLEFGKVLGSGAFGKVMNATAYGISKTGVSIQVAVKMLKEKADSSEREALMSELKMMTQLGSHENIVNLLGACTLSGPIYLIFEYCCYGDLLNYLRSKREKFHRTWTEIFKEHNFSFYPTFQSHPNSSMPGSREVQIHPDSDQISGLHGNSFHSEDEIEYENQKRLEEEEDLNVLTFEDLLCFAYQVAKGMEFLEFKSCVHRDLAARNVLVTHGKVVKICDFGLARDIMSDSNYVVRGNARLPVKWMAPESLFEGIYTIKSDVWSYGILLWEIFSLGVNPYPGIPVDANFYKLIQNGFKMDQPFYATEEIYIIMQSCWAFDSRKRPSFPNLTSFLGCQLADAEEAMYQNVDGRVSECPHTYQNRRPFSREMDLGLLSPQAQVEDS
Description: Inhibition of FLT3 by HTRF assay

[4] = Half life in mouse at 1 mg/kg, iv; format: ADME, organism-based; parameters: dose 1 mg/kg, route intravenous; details: in vivo
[5] = molecular target: Tyrosine-protein kinase HCK (Homo sapiens, UniProt P08631); assay: Inhibition of HCK by HTRF assay
[6] = test system: Mus musculus; assay: Inhibition of estradiol-induced uterine edema in orally dosed BALB/c mouse edema model at 3 mg/kg, po; format: functional
[7] = molecular target: Angiopoietin-1 receptor (Homo sapiens, UniProt Q02763); assay: Inhibition of TIE2 by HTRF assay
Chain of Angiopoietin-1 receptor (Q02763 whole entry): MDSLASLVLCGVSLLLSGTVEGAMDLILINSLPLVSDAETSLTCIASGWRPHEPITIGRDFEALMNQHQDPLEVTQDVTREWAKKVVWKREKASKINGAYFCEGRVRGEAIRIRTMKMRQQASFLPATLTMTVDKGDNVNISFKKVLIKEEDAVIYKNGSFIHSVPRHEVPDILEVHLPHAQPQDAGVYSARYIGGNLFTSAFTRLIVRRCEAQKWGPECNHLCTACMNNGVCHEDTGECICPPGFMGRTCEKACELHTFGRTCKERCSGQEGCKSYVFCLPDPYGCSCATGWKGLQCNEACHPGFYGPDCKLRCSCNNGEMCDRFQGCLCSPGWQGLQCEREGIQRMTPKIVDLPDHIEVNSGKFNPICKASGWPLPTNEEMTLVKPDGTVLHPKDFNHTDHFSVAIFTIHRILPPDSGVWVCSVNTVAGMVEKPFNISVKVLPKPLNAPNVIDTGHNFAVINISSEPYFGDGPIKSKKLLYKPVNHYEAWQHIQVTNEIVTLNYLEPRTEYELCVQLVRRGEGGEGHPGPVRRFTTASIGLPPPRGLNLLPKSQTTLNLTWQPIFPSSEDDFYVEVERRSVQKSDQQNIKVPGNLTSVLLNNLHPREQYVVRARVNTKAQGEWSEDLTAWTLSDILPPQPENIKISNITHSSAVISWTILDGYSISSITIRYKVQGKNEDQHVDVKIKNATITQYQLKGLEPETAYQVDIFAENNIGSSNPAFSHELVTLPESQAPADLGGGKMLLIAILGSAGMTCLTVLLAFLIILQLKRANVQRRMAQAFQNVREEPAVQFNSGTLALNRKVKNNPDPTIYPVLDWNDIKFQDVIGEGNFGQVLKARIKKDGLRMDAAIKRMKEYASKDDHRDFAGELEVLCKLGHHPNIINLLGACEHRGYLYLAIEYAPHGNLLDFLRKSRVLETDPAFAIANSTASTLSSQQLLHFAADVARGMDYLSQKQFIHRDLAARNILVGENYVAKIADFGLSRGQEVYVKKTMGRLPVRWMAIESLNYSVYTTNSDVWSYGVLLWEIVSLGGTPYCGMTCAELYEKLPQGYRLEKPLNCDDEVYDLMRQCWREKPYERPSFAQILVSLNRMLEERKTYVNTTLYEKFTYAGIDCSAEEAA

[8] = test system: HT-1080; assay: Inhibition of tumor growth in human HT1080 cells xenografted in SCID/Beige mouse at 30 mg/kg/day, bid relative to control; details: HT-1080, read-out: TGI
[9] = Volume of distribution in mouse at 1 mg/kg, iv; format: ADME, organism-based; parameters: dose 1 mg/kg, route intravenous; details: in vivo
[10] = molecular target: Vascular endothelial growth factor receptor 1 (Homo sapiens, UniProt P17948); assay: Inhibition of FLT1 by HTRF assay
Chain of Vascular endothelial growth factor receptor 1 (P17948 whole entry): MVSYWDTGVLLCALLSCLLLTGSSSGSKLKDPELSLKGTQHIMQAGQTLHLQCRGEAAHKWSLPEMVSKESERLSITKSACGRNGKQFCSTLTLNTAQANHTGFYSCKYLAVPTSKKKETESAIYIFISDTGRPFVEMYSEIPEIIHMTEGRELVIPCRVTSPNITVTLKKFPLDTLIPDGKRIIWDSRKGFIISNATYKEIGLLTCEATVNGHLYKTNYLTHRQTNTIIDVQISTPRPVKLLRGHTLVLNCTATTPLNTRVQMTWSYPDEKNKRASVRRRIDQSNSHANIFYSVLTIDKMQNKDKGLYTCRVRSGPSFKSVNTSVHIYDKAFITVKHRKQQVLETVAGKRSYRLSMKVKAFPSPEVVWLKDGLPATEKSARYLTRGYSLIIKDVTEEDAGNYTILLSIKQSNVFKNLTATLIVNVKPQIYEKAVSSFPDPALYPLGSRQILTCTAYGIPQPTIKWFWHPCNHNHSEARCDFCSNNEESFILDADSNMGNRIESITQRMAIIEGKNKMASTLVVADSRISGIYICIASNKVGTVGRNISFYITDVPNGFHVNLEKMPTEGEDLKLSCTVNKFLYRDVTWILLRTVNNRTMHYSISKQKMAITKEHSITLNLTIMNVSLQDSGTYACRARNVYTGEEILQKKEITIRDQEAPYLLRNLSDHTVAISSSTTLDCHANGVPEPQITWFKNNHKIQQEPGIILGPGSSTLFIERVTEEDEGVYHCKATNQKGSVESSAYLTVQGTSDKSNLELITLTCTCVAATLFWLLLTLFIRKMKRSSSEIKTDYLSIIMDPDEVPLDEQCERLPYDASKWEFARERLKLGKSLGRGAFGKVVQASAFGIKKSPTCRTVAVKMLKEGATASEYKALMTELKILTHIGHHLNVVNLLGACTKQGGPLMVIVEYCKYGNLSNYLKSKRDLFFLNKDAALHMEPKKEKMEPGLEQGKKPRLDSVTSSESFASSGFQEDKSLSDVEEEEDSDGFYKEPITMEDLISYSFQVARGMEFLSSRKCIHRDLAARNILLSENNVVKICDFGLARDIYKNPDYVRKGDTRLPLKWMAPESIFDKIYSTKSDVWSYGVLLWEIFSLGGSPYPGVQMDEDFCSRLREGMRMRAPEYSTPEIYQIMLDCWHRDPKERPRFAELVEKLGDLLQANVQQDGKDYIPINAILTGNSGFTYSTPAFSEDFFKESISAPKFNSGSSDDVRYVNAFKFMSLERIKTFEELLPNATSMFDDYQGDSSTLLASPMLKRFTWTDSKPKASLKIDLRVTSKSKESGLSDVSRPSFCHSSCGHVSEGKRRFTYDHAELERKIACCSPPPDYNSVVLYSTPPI

[11] = AUC in mouse at 10 mg/kg, po; format: ADME, organism-based; parameters: dose 10 mg/kg, route oral; details: plasma
[12] = Oral bioavailability in mouse at 10 mg/kg; format: ADME, organism-based; details: in vivo
[13] = molecular target: Proto-oncogene tyrosine-protein kinase Src (Homo sapiens, UniProt P12931); assay: Inhibition of SRC by HTRF assay
[14] = molecular target: Platelet-derived growth factor receptor beta (Homo sapiens, UniProt P09619); assay: Inhibition of PDGFRbeta by HTRF assay
[15] = Clearance in mouse at 1 mg/kg, iv; format: ADME, organism-based; parameters: dose 1 mg/kg, route intravenous; details: in vivo
[16] = molecular target: Macrophage colony-stimulating factor 1 receptor (Homo sapiens, UniProt P07333); assay: Inhibition of CSF1R by HTRF assay
[17] = molecular target: Tyrosine-protein kinase Lyn (Homo sapiens, UniProt P07948); assay: Inhibition of LYN by HTRF assay
[18] = molecular target: T2, Vascular endothelial growth factor receptor 2 (Homo sapiens, UniProt P35968); assay: Inhibition of human KDR phosphorylation in mouse NIH3T3 cells by ELISA; format: cell-based
T2 sequence (P35968 whole entry): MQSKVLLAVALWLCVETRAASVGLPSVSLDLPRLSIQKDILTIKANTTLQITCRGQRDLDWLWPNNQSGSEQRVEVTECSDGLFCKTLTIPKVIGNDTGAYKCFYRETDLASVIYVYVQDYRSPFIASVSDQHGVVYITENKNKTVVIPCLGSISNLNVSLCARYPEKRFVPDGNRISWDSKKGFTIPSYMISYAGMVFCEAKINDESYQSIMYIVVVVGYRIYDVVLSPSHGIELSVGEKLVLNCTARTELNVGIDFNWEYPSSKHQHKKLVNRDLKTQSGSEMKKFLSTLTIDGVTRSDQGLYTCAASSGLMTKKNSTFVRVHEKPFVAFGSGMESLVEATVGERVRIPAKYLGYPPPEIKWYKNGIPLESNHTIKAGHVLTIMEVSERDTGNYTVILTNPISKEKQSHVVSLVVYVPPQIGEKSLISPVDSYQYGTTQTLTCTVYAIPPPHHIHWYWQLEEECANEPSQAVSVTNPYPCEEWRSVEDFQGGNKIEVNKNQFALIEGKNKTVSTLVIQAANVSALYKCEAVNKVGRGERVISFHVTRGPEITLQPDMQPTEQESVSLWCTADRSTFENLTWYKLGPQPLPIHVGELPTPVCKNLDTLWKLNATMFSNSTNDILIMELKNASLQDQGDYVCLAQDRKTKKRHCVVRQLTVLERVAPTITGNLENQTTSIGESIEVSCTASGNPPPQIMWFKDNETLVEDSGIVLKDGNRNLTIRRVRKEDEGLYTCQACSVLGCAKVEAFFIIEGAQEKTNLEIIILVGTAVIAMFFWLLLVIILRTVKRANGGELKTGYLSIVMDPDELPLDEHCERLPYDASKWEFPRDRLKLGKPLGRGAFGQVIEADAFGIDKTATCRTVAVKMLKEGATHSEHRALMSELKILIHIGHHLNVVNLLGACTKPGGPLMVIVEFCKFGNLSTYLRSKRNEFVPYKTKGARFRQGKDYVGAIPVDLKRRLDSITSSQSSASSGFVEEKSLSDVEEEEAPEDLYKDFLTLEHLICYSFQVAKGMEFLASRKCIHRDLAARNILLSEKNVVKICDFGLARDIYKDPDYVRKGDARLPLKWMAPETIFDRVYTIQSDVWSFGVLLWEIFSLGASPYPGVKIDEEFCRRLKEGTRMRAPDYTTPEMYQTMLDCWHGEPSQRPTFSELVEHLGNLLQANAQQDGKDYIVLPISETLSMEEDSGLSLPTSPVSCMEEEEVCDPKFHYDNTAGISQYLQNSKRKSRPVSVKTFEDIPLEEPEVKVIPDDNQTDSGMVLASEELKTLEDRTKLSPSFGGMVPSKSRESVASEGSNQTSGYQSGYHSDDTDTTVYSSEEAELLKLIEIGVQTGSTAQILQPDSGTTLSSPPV

[19] = molecular target: T2, Vascular endothelial growth factor receptor 2
Description: Inhibition of KDR by HTRF assay

[20] = Clearance in mouse at 3 mg/kg, iv; format: ADME, organism-based; parameters: dose 3 mg/kg, route intravenous; details: in vivo
[21] = Volume of distribution in mouse at 3 mg/kg, iv; format: ADME, organism-based; parameters: dose 3 mg/kg, route intravenous; details: in vivo
[22] = test system: Mus musculus; assay: Inhibition of estradiol-induced uterine edema in orally dosed BALB/c mouse edema model; format: functional; details: po
[23] = Half life in mouse at 3 mg/kg, iv; format: ADME, organism-based; parameters: dose 3 mg/kg, route intravenous; details: in vivo

SMILES: Cc1ccc(F)c(NC(=O)Nc2ccc(-c3ccc(OCCN4CCOCC4)c4onc(N)c34)cc2)c1
IC50 [2]: 71 nM
IC50 [3]: 34 nM

SMILES: Nc1noc2cccc(-c3ccc(NC(=O)Nc4cccc([N+](=O)[O-])c4)cc3)c12
IC50 [2]: 14 nM
IC50 [3]: 5 nM

SMILES: Nc1nsc2cccc(-c3ccc(NC(=O)Nc4cccc(C(F)(F)F)c4)cc3)c12
IC50 [2]: 2630 nM
IC50 [3]: 1260 nM
IC50 [19]: 247 nM

SMILES: Nc1noc2cccc(-c3ccc(NC(=O)Nc4ccccc4OC(F)(F)F)cc3)c12
IC50 [2]: 166 nM
IC50 [3]: 60 nM

SMILES: Nc1noc2cccc(-c3ccc(NC(=O)Nc4cc(F)cc(F)c4)cc3)c12
Activity [1]: inactive
IC50 [2]: 14 nM

SMILES: NC(=O)Nc1ccc(-c2cccc3onc(N)c23)cc1
IC50 [2]: 4440 nM

SMILES: Nc1noc2cccc(-c3ccc(NC(=O)Nc4ccc(F)c(C(F)(F)F)c4)cc3)c12
clearance [20]: 13.2 mL/min/kg
Vd [21]: 1.4 L/kg
inhibition in vivo at 30 mg/kg/day [8]: 63%
IC50 [2]: 62 nM
IC50 [3]: 28 nM
ED50 [22]: 5.4 mg/kg
AUC [11]: 33.1 µM·h
bioavailability [12]: 100%
half-life [23]: 1.2 h

SMILES: Nc1noc2cccc(-c3ccc(NC(=O)Nc4ccccc4C(F)(F)F)cc3)c12
IC50 [2]: 23400 nM

SMILES: Nc1noc2cccc(-c3ccc(NC(=O)Nc4cc(C(F)(F)F)ccc4F)cc3)c12
IC50 [2]: 339 nM

SMILES: Nc1noc2cccc(-c3ccc(NC(=O)Nc4ccc(F)cc4)cc3)c12
IC50 [2]: 7 nM
IC50 [3]: 4 nM

SMILES: Cc1ccc(F)c(NC(=O)Nc2ccc(-c3cccc4snc(N)c34)cc2)c1
IC50 [2]: 790 nM
IC50 [3]: 1500 nM
IC50 [19]: 628 nM

SMILES: Nc1noc2cccc(-c3ccc(NC(=O)Nc4ccccc4F)cc3)c12
IC50 [2]: 21 nM

SMILES: Cc1ccc(F)c(NC(=O)Nc2ccc(-c3ccc(F)c4onc(N)c34)cc2)c1
IC50 [2]: 216 nM
IC50 [3]: 173 nM
IC50 [19]: 211 nM

More lines, main results first:

Activity [1]: inactive
IC50 [2]: 12 nM
SMILES: Cc1ccc(NC(=O)Nc2ccc(-c3cccc4onc(N)c34)cc2)cc1F

Activity [1]: inactive
IC50 [2]: 11 nM
SMILES: Nc1noc2cccc(-c3ccc(NC(=O)Nc4cccc(F)c4)cc3)c12

half-life [4]: 0.9 h
IC50 [5]: > 50000 nM
IC50 [7]: 1000 nM
Vd [9]: 1.2 L/kg
IC50 [10]: 38 nM
IC50 [2]: 72 nM
IC50 [3]: 30 nM
AUC [11]: 25.8 µM·h
bioavailability [12]: 99%
IC50 [13]: > 50000 nM
Activity [14]: inactive
clearance [15]: 15.5 mL/min/kg
IC50 [16]: 40 nM
IC50 [17]: > 50000 nM
SMILES: COc1ccc(-c2ccc(NC(=O)Nc3cccc(Cl)c3)cc2)c2c(N)noc12
inhibition in vivo at 3 mg/kg [6]: 90%
inhibition in vivo at 30 mg/kg/day [8]: 45%

IC50 [18]: 36 nM
IC50 [3]: 8 nM
IC50 [19]: 8 nM
SMILES: COc1ccc(NC(=O)Nc2ccc(-c3cccc4onc(N)c34)cc2)cc1Cl

Activity [1]: inactive
IC50 [2]: 4 nM
SMILES: COc1cccc(NC(=O)Nc2ccc(-c3cccc4onc(N)c34)cc2)c1

clearance [20]: 18.3 mL/min/kg
Vd [21]: 3.1 L/kg
AUC [11]: 13.8 µM·h
bioavailability [12]: 71%
half-life [23]: 1.9 h
SMILES: COc1ccc(-c2ccc(NC(=O)Nc3cccc(Br)c3)cc2)c2c(N)noc12
ED50 [22]: 1 mg/kg

IC50 [2]: 36 nM
IC50 [3]: 22 nM
SMILES: Nc1noc2cccc(-c3ccc(NC(=O)Nc4ccc(F)c(Cl)c4)cc3)c12
